Data: ChEMBL document CHEMBL4680246, “Design, synthesis and biological evaluation of novel O-carbamoyl ferulamide derivatives as multi-target-directed ligands for the treatment of Alzheimer's disease” (Eur J Med Chem, 2020)
Active and inactive are the calls of the source. The calls are words filed in the database; no cut-off is given here.

What was measured:
[1] = biological target: Cholinesterase (Equus caballus) (UniProt P81908); experiment: Inhibition of equine serum BuChE at 25 uM using BTC as substrate after 15 mins by Ellman's method relative to control
Sequence of Cholinesterase (Equus caballus) (P81908 whole entry): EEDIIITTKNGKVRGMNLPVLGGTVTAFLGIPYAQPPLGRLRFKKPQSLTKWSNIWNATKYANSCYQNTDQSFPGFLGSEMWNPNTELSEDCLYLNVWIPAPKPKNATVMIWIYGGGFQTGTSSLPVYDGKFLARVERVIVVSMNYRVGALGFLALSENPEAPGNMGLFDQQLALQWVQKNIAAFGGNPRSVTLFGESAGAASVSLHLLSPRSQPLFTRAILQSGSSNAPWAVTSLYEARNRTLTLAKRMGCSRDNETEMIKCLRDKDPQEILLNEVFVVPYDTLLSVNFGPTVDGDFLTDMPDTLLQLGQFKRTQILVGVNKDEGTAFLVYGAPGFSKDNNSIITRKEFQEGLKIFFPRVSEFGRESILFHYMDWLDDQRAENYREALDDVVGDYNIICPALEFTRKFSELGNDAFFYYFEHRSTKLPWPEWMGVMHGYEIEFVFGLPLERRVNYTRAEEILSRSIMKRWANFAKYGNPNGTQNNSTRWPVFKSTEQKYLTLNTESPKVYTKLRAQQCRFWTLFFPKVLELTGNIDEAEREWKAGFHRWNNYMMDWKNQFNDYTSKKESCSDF

Homo sapiens [2] = species on record: Homo sapiens; experiment: Selectivity index, ratio of IC50 for recombinant human MAO-A to IC50 for recombinant human MAO-B
Cholinesterase [3] = biological target: T1, Cholinesterase (Homo sapiens, UniProt P06276); experiment: Inhibition of human serum BuChE using acetylcholine iodide as substrate incubated for 15 mins by Ellman's method
T1 sequence (P06276 whole entry): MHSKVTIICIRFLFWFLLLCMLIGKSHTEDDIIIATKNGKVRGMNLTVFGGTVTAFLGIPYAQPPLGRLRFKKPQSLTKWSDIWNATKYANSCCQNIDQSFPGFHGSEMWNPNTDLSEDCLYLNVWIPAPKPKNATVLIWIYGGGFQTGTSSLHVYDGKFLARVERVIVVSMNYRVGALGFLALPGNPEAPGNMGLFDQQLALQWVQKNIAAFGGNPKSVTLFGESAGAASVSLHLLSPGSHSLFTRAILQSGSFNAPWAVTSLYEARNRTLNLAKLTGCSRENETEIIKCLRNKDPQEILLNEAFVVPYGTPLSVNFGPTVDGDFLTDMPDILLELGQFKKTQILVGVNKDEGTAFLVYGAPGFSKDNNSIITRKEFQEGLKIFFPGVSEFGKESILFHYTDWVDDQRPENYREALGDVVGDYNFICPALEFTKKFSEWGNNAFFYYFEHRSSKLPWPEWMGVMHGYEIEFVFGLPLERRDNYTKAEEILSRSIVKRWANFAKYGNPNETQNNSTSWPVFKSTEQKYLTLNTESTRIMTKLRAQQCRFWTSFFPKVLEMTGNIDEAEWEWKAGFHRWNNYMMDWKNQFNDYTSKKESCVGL

Homo sapiens [4] = species on record: Homo sapiens; experiment: Selectivity index, ratio of IC50 for human erythrocytes Ache to IC50 for human serum BuChe
Cholinesterase [5] = biological target: Cholinesterase (Equus caballus, UniProt P81908); experiment: Inhibition of equine serum BuChE using BTC as substrate after 15 mins by Ellman's method
Sequence of Cholinesterase (Equus caballus, UniProt P81908) (P81908 whole entry): as the sequence (P81908 whole entry) above

Acetylcholinesterase [6] = biological target: Acetylcholinesterase (Electrophorus electricus, UniProt O42275); experiment: Inhibition of Electrophorus electricus AChE using acetylcholine iodide as substrate incubated for 15 mins by Ellman's method
Sequence of Acetylcholinesterase (Electrophorus electricus, UniProt O42275) (O42275 whole entry): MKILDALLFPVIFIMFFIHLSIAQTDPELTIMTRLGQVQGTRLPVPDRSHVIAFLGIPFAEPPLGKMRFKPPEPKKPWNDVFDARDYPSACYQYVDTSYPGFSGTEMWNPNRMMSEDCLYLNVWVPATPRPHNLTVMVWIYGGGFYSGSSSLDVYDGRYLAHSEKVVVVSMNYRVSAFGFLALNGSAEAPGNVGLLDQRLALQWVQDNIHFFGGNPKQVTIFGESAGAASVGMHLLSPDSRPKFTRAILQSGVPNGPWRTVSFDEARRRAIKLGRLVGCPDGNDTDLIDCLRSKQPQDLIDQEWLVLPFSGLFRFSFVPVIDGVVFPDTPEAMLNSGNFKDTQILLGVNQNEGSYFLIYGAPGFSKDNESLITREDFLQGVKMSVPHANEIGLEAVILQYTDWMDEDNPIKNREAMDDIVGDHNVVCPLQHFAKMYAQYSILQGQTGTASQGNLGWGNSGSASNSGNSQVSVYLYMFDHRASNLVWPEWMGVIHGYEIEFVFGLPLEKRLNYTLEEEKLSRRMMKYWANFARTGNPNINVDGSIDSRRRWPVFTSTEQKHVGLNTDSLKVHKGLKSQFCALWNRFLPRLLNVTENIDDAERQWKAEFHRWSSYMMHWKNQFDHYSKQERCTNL

Acetylcholinesterase [7] = biological target: Acetylcholinesterase (Homo sapiens, UniProt P22303); experiment: Inhibition of human erythrocytes AChE using acetylcholine iodide as substrate incubated for 15 mins by Ellman's method
Sequence of Acetylcholinesterase (Homo sapiens, UniProt P22303) (P22303 whole entry): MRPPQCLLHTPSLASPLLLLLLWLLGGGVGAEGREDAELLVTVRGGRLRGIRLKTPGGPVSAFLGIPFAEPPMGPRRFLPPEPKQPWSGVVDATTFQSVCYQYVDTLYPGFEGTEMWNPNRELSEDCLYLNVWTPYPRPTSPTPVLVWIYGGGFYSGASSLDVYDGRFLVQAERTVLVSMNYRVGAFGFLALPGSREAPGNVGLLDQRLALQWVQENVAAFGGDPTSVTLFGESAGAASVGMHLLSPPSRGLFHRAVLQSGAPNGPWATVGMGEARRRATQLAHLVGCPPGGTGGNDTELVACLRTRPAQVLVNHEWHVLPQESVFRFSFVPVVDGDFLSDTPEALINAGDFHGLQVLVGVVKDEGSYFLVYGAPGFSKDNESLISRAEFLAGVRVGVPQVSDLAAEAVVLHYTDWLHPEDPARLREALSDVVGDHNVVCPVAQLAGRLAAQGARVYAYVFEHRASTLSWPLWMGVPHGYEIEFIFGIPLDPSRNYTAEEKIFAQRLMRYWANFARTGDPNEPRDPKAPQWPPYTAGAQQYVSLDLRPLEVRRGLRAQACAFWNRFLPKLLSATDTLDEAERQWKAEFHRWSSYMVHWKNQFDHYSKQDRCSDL

[8] = biological target: T2, Amine oxidase [flavin-containing] A (Homo sapiens, UniProt P21397); experiment: Inhibition of recombinant human MAO-A
T2 sequence (P21397 whole entry): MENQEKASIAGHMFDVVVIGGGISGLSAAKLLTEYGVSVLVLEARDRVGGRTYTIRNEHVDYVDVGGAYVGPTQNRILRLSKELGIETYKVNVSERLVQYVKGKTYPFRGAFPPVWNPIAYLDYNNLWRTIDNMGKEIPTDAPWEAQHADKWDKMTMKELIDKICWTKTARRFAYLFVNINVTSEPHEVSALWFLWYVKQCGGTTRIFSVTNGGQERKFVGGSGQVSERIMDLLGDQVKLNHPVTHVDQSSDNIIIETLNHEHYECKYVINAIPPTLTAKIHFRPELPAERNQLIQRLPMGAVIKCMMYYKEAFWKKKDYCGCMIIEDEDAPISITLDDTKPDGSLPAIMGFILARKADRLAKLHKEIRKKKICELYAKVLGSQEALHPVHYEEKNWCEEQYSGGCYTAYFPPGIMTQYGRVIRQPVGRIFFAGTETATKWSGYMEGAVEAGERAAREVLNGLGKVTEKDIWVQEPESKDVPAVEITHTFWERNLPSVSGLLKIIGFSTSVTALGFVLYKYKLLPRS

[9] = biological target: T3, Amine oxidase [flavin-containing] B (Homo sapiens, UniProt P27338); experiment: Inhibition of recombinant human MAO-B
T3 sequence (P27338 whole entry): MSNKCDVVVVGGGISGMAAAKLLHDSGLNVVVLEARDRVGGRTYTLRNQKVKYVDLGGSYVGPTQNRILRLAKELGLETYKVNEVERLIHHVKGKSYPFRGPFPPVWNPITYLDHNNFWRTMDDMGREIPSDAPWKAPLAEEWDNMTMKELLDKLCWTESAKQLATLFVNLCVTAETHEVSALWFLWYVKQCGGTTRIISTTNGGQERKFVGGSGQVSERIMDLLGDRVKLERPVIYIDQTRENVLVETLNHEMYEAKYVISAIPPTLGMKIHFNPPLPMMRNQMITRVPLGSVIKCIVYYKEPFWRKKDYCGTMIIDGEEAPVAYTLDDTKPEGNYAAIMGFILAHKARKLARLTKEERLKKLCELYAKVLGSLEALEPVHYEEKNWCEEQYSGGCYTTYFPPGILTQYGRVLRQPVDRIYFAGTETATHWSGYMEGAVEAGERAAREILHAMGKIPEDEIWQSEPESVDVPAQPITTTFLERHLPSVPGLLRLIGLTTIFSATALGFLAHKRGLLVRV

[10] = Selectivity index, ratio of IC50 for Electrophorus electricus AChE to IC50 for equine serum BuChE
[11] = biological target: Amyloid-beta precursor protein (Homo sapiens) (UniProt P05067); experiment: Inhibition of self-induced Amyloid beta (1 to 42 residues) (unknown origin) aggregation at 25 uM measured after 24 hrs by thioflavin T-based fluorimetric assay relative to control
Sequence of Amyloid-beta precursor protein (Homo sapiens) (P05067 whole entry, the tested form may be a part): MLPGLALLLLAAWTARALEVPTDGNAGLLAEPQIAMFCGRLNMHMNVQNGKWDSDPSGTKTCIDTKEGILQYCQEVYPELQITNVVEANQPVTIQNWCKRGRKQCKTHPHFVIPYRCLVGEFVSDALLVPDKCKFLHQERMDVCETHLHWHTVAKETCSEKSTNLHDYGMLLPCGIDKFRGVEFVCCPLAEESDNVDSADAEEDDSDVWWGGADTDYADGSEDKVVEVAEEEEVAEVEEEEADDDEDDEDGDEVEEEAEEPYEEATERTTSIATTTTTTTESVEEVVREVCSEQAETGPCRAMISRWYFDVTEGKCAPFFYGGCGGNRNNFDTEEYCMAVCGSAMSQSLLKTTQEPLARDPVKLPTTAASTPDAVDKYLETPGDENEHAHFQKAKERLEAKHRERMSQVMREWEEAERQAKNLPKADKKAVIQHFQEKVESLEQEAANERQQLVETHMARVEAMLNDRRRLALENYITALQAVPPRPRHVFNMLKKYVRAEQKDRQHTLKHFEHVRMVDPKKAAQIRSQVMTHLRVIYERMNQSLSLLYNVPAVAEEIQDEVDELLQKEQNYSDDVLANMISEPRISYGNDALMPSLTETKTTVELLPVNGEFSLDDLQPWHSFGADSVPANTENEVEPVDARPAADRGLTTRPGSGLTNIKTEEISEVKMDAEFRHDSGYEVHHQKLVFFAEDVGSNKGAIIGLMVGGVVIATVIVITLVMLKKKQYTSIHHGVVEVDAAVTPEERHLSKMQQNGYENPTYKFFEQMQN

Danio rerio [12] = species on record: Danio rerio; experiment: Antialzheimer activity in AlCl3-induced Zebrafish model of Alzheimer's disease assessed as increase in motility distance at 8 uM relative to control; assay type: functional
Cholinesterase [13] = biological target: T1, Cholinesterase; experiment: Inhibition of human serum BuChE assessed as residual activity at 0.1 times IC50 using acetylcholine iodide as substrate measured after dilution by Ellman's method relative to control
Danio rerio [14] = species on record: Danio rerio; experiment: Antialzheimer activity in AlCl3-induced Zebrafish model of Alzheimer's disease assessed as increase in motility speed at 8 uM relative to control; assay type: functional
Danio rerio [15] = species on record: Danio rerio; experiment: Antialzheimer activity in AlCl3-induced Zebrafish model of Alzheimer's disease assessed as motility distance at 8 uM (reference value: 5346 mm); assay type: functional
Danio rerio [16] = species on record: Danio rerio; experiment: Antialzheimer activity in AlCl3-induced Zebrafish model of Alzheimer's disease assessed as change in motility speed at 8 uM (reference value: 1.08 mm/s); assay type: functional
Mus musculus = experiment: Improvement in cognitive impairment in scopolamine-induced mouse model of amnesia assessed as increase in spontaneous alteration at 10 mg/kg by Y-maze test; assay type: functional, organism-based

Structure (SMILES) | inhibition [1] [%] | Ratio IC50 (Homo sapiens [2]) | IC50 (Cholinesterase [3]) [µM] | Ratio IC50 (Homo sapiens [4]) | IC50 (Cholinesterase [5]) [µM] | IC50 (Acetylcholinesterase [6]) [µM] | IC50 (Acetylcholinesterase [7]) [µM] | IC50 [8] [µM] | IC50 [9] [µM] | Ratio IC50 [10] | inhibition [11] [%] | Efficacy (Danio rerio [12]) [%] | Activity (Cholinesterase [13]) [%] | Efficacy (Danio rerio [14]) [%] | Activity (Danio rerio [15]) [mm] | Activity (Danio rerio [16]) | Activity (Mus musculus)
COc1cc(/C=C/C(=O)N2CCCCC2)ccc1OC(=O)N(c1ccccc1)c1ccccc1 | 20 | 2.1 | 22.9 | 1.2 | 98.5 | 21.8 | 27.2 | 46.2 | 21.8 |  |  |  |  |  |  |  | 
CCN(CC)C(=O)/C=C/c1ccc(OC(=O)N(C)C)c(OC)c1 |  | 0.97 | 15.2 | 0.86 | 19.2 | 17.8 | 13.1 | 30.9 | 31.8 | 0.93 |  |  |  |  |  |  | 
CCN(CC)C(=O)Oc1ccc(/C=C/C(=O)N2CCc3ccccc3C2)cc1OC |  | 1.2 | 7.7 | 2 | 2 | 13.6 | 15.7 | 8 | 6.6 | 6.8 |  |  |  |  |  |  | 
CCN(CC)C(=O)Oc1ccc(/C=C/C(=O)N2CCC(Cc3ccccc3)CC2)cc1OC |  | 1.5 | 5.1 | 3.9 | 2.8 | 25.6 | 19.7 | 7.8 | 5.13 | 9.1 | 49.7 |  |  |  |  |  | 
COc1cc(/C=C/C(=O)O)ccc1O [FERULATE] |  |  | > 100 |  | > 100 | > 100 | > 100 |  |  |  |  |  |  |  |  |  | 
CCN(C)C(=O)Oc1ccc(/C=C/C(=O)N2CCN(Cc3ccccc3)CC2)cc1 |  | 0.5 | 29.7 | 0.5 | 20.3 | 25.6 | 14.8 | 9.8 | 21.3 | 1.3 |  |  |  |  |  |  | 
COc1cc(/C=C/C(=O)N2CCc3ccccc3C2)ccc1OC(=O)N(c1ccccc1)c1ccccc1 |  | 1.4 | 25.8 | 1.2 | 23.9 | 93.2 | 30.5 | 16.9 | 12.2 |  |  |  |  |  |  |  | 
COc1cc(/C=C/C(=O)N2CCC(Cc3ccccc3)CC2)ccc1OC(=O)N(C)C |  | 1.8 | 7.6 | 2.2 | 1.3 | 18.9 | 16.6 | 16.3 | 8.9 | 14.5 | 56.6 |  |  |  |  |  | 
CCN(C)C(=O)Oc1ccc(/C=C/C(=O)N(CC)Cc2ccccc2)cc1OC |  | 1.5 | 3.8 | 5.4 | 1.5 | 19.5 | 20.7 | 14.1 | 9.5 | 13 | 50.7 |  |  |  |  |  | 
CCN(C)C(=O)Oc1ccc(/C=C/C(=O)N2CCC(Cc3ccccc3)CC2)cc1OC |  | 1.1 | 6.5 | 2.7 | 3.9 | 15.1 | 17.3 | 7.9 | 7.52 | 3.9 | 53.7 |  |  |  |  |  | 
CCN(C)C(=O)Oc1ccc(/C=C/C(=O)N2CCCCC2)cc1OC |  | 1.8 | 12.6 | 0.85 | 19.6 | 15.3 | 10.7 | 29.6 | 16.3 | 0.78 |  |  |  |  |  |  | 
COc1cc(/C=C/C(=O)N2CCN(Cc3ccccc3)CC2)ccc1OC(=O)N(c1ccccc1)c1ccccc1 | 9.7 | 0.5 | 22.3 | 1.3 | > 100 | 89.8 | 28.7 | 14.7 | 31.8 |  |  |  |  |  |  |  | 
COc1cc(/C=C/C(=O)N2CCN(Cc3ccccc3)CC2)ccc1OC(=O)N(C)C |  | 2.3 | 14.2 | 1.7 | 12.1 | 22.7 | 23.5 | 39.1 | 16.7 | 1.9 |  |  |  |  |  |  | 
CCN(C)C(=O)Oc1ccc(/C=C/C(=O)N2CCc3ccccc3C2)cc1 |  | 11.7 | 3.7 | 1.8 | 3.8 | 17.7 | 6.8 | 97.3 | 8.3 | 4.7 | 52.9 |  |  |  |  |  | 
COc1cc2c(cc1OC)C(=O)C(CC1CCN(Cc3ccccc3)CC1)C2 (stereo not given) [DONEPEZIL] |  |  |  |  |  |  |  |  |  |  |  | 57.9 | 63.2 | 64.5 | 6477 | <=1.88 millimeter/sec | 
COc1cc(/C=C/C(=O)N2CCC(Cc3ccccc3)CC2)ccc1OC(=O)N(c1ccccc1)c1ccccc1 | 6.6 | 2.6 | 36.7 | 0.9 | > 100 | 88.3 | 32.1 | 34.6 | 13.3 |  |  |  |  |  |  |  | 
CCN(Cc1ccccc1)C(=O)/C=C/c1ccc(OC(=O)N(c2ccccc2)c2ccccc2)c(OC)c1 |  | 1.5 | 25.3 | 1.1 | 24.6 | 18.9 | 28.1 | 24.6 | 15.9 | 0.77 |  |  |  |  |  |  | 
COc1cc(/C=C/C(=O)N2CCc3ccccc3C2)ccc1OC(=O)N(C)OC |  | 3.3 | 16.2 | 0.76 | 29.2 | 11.8 | 12.3 | 22.2 | 6.8 | 0.4 |  |  |  |  |  |  | 
CCN(CC)C(=O)Oc1ccc(/C=C/C(=O)N2CCN(Cc3ccccc3)CC2)cc1OC |  | 0.8 | 10.6 | 1.6 | 8.7 | 19.2 | 16.8 | 19.7 | 23.2 | 2.2 |  |  |  |  |  |  | 
CC(=O)OCC[N+](C)(C)C |  |  |  |  |  |  |  |  |  |  |  |  |  |  |  |  | inactive
CCN(C)C(=O)Oc1ccc(/C=C/C(=O)N2CCC(Cc3ccccc3)CC2)cc1 |  | 7.3 | 5.6 | 4.8 | 5.3 | 22.1 | 27.1 | 56.8 | 7.8 | 4.2 | 48.1 |  |  |  |  |  | 
COc1cc(/C=C/C(=O)N2CCc3ccccc3C2)ccc1OC(=O)N(C)C |  | 3.6 | 9.5 | 1.9 | 3.7 | 26.8 | 17.9 | 35.7 | 9.8 | 7.2 |  |  |  |  |  |  | 
COc1cc(/C=C/C(=O)N2CCCCC2)ccc1OC(=O)N(C)C |  | 1 | 13.1 | 0.69 | 26.3 | 17.5 | 9.1 | 33.3 | 32.5 | 0.67 |  |  |  |  |  |  | 
